Experimental data published in patent publication US7691805B2, “Antimicrobial compounds” (Neobiotics AB, priority 2004, dated 2010).
Non-standard residues stand in square brackets, D forms with d. No end group written: not given here. Phg = N[C@H](C(=O)O)c1ccccc1; code Z = not defined here; Orn = NCCC[C@H](N)C(=O)O; Mpa = O=C(O)CCS

Test system: bacteria
Assay: Anti-bacterial activity (tables of particularly interesting compounds)
Format: cell-based
Set-up: key: + indicates that the compound show effects
[1] = peptide analogues and cyclic compounds
[2] = compounds listed by R4 or R1 residue

## cyclo(D-Tyr-Arg-Leu-Val-D-Tyr-Arg-Leu-Val) (chain 1 [dY]RLV; chain 2 [dY]RLV; also: two chains joined into one cyclic octapeptide, head-to-tail to a chain's N/C-terminus)
[1]
  Activity Anti-bacterial: +

## CC(C)CC(NC(=O)C(CCCNC(=N)N)NC(=O)OCc1ccccc1)C(=O)NC(CNC(=O)C#Cc1ccccc1)C(C)C (stereo not drawn) [Phenylpropiolyl]
[2]
  Activity Anti-bacterial: +

## Mpa-Phe-Arg-Leu-Val-Phe-Cys-NH2 ([Mpa]FRLVFC-NH2; cysteine pairing not given here) [footnote: Mpa-Phe indicates 3-phenylpropionyl]
[1]
  Activity Anti-bacterial: +

## Z-Arg-Leu-Val-cinnamoylamide
[1]
  Activity Anti-bacterial: +

## CC(C)CC(NC(=O)C(CCCNC(=N)N)NC(=O)OCc1ccccc1)C(=O)NC(CNC(=O)[C@H](Br)Cc1ccccc1)C(C)C (stereo partly drawn) [Compound D-2-bromo-3-phenylpropionyl]
[2]
  Activity Anti-bacterial: +

## CC(C)CC(NC(=O)C(CCCNC(=N)N)NC(=O)OCc1ccccc1)C(=O)NC(CNC(=O)C=Cc1ccc(-c2ccccc2)cc1)C(C)C (stereo not drawn) [Compound 4-phenylcinnamoyl]
[2]
  Activity Anti-bacterial: +

## CC(C)CC(NC(=O)C(CCCNC(=N)N)NC(=O)OCc1ccccc1)C(=O)NC(CNC(=O)/C=C/c1ccccc1)C(C)C (stereo not drawn) [Benzyloxtcarbonyl]
[2]
  Activity Anti-bacterial: +

## CC(C)CC(NC(=O)C(CCCNC(=N)N)NC(=O)OCc1ccccc1)C(=O)NC(CNC(=O)C=CC=Cc1ccccc1)C(C)C (stereo not drawn) [5-phenylpenta-2,4-dienoyl]
[2]
  Activity Anti-bacterial: +

## CC(C)CC(NC(=O)C(CCCNC(=N)N)NC(=O)CCCc1ccccc1)C(=O)NC(CNC(=O)/C=C/c1ccccc1)C(C)C (stereo not drawn) [Compound 4-phenylbutyryl]
[2]
  Activity Anti-bacterial: +

## CC(=O)NC(CCCNC(=N)N)C(=O)NC(CC(C)C)C(=O)NC(CNC(=O)/C=C/c1ccccc1)C(C)C (stereo not drawn) [Acetyl]
[2]
  Activity Anti-bacterial: +

## C=C(C(=O)NCC(NC(=O)C(CC(C)C)NC(=O)C(CCCNC(=N)N)NC(=O)OCc1ccccc1)C(C)C)c1ccncc1 (stereo not drawn) [2-(4-pyridyl)acroyl]
[2]
  Activity Anti-bacterial: +

## Z-Arg-Leu-Val-Phe-NH2 ({code Z}-RLVF-NH2; reading uncertain; also: printed as Z-Arg-Leu-Val-Phe-NH2)
[1]
  Activity Anti-bacterial: +

## CC(C)CC(NC(=O)C(CCCNC(=N)N)NC(=O)OCc1ccccc1)C(=O)NC(CNC(=O)Cc1ccccc1)C(C)C (stereo not drawn) [n = 1]
[2]
  Activity Anti-bacterial: +

## CC(C)CC(NC(=O)C(CCCNC(=N)N)NC(=O)Cc1ccccc1)C(=O)NC(CNC(=O)/C=C/c1ccccc1)C(C)C (stereo not drawn) [Phenylacetyl]
[2]
  Activity Anti-bacterial: +

## cyclo(F[Orn]LVF[Orn]LV)
[1]
  Activity Anti-bacterial: +

## CC(C)CC(NC(=O)C(CCCNC(=N)N)NC(=O)OCc1ccccc1)C(=O)NC(CNC(=O)CCc1ccccc1)C(C)C (stereo not drawn) [n = 2]
[2]
  Activity Anti-bacterial: +

## CC(C)CC(NC(=O)C(CCCNC(=N)N)NC(=O)CCc1ccccc1)C(=O)NC(CNC(=O)/C=C/c1ccccc1)C(C)C (stereo not drawn) [Compound 3-phenylpropionyl]
[2]
  Activity Anti-bacterial: +

## cyclo(Phe-Arg-Leu-Val-Phe-Arg-Leu-Val) (FRLVFRLV; cyclic; printed: Phe-Arg-Leu-Val-Phe-Arg-Leu-Val)
[1]
  Activity Anti-bacterial: +

## CC(C)CC(NC(=O)C(CCCNC(=N)N)NC(=O)OCc1ccccc1)C(=O)NC(CNC(=O)[C@H](O)Cc1ccccc1)C(C)C (stereo partly drawn) [Compound D-2-hydroxy-3-phenylpropionyl]
[2]
  Activity Anti-bacterial: +

## cyclo([Phg]RLV[Phg]RLV)
[1]
  Activity Anti-bacterial: +

## CC(C)CC(NC(=O)C(CCCNC(=N)N)NC(=O)OCc1ccccc1)C(=O)NC(CNC(=O)CCl)C(C)C (stereo not drawn) [Chloroacetyl]
[2]
  Activity Anti-bacterial: +

## CC(C)CC(NC(=O)C(CCCNC(=N)N)NC(=O)OCc1ccccc1)C(=O)NC(CNC(=O)[C@@H](O)Cc1ccccc1)C(C)C (stereo partly drawn) [Compound L-2-hydroxy-3-phenylpropionyl]
[2]
  Activity Anti-bacterial: +

## CC(C)CC(NC(=O)C(CCCNC(=N)N)NC(=O)OCc1ccccc1)C(=O)NC(CNC(=O)/C=C/Cc1ccccc1)C(C)C (stereo not drawn) [trans-3-benzylacroyl]
[2]
  Activity Anti-bacterial: +

## cyclo(FRLVF[Orn]LV)
[1]
  Activity Anti-bacterial: +
